Patent US20250338846A1, “COMPOSITIONS HAVING PESTICIDAL UTILITY AND PROCESSES RELATED THERETO” (CORTEVA AGRISCIENCE, LLC, priority 2022, published 2025)
Values joined by “and” are separate entries in the source; they are usually repeats but may differ in a detail not shown here. Identical values can stand only once.

Legend:
[1] = test system: Green Peach Aphid (Myzus persicae, MYZUPE); assay: Bioassay 1: Green Peach Aphid, foliar spray on infested cabbage seedlings, live aphids counted three days after treatment; format: in vivo
Experimental: Bioassay 1: Green Peach Aphid (Myzus persicae, MYZUPE) (“GPA”).
The stock solutions were prepared with Formula One as well as for each of the active ingredients individually. Test solutions were prepared from the stock solutions. Test solutions were prepared containing Formula One, the individual active ingredients, and mixtures of Formula One with each of the active ingredients. The test solutions for Formula One and the individual active ingredients were prepared by adding 750 microliters (μL) of stock solution to a 25 mL glass vial, then adding 750 μL of 1:1 acetone: methanol solvent, followed by the addition of 13.5 ml water with 0.025% Tween®) 20 to create a 0.0005% (weight/volume (w/v)) solution. The test solutions containing mixtures of Formula One and the individual active ingredients were prepared by adding 750 μL of the active ingredient stock solution to a 25 mL glass vial, followed by 750 μL of the Formula One stock solution, then by the addition of 13.5 mL water with 0.025% Tween®) 20 to create a test solution containing 0.0005% (w/v) Formula One and 0.0005% (w/v) of the active ingredient. Each test solution was serially diluted to create desired doses of test solutions (0.0005% (w/v), 0.000125% (w/v), 0.00003125% (w/v), 0.0000078% (w/v), 0.00000195% (w/v), and 0.0000005% (w/v)).
The test solutions were tested against GPA using the following procedure: Cabbage seedlings, grown in 3-inch pots with 2-3 small (3-5 centimeter (cm)) true leaves, were used as test substrate. The seedlings were infested with 20-50 GPA (wingless adult and nymph stages) one day prior to chemical application. Four pots with individual seedlings were used for each treatment. A hand-held aspirator-type sprayer was used for spraying a solution to both sides of […] leaves until runoff. Reference plants (solvent check) were sprayed with the diluent only (0.025% Tween®) 20 and 10% acetone:methanol (1:1) in water). Treated plants were held in a holding room for three days at approximately 25° C. and ambient relative humidity (RH about 20% to about 45%) prior to grading. Evaluation was conducted by counting the number of live aphids per plant under a microscope three days after treatment. Percent control was measured using Abbott's correction formula (W. S. Abbott, J. Econ. Entomol. 18 (1925), pp. 265-267) as follows:
where X=No. of live aphids on solvent check plants and Y=No. of live aphids on treated plants. In Table B1 the “Expected % Control” was calculated using the method described in Colby S. R., Weeds, 1967, 15, 20-22. Bioassay 2: Sweet Potato Whitefly (Bemisia tabaci, BEMITA) (“SPW”).

[2] = test system: Western Tarnished Plant Bug (Lygus hesperus, LYGUHE); assay: Bioassay 4: Western Tarnished Plant Bug, soaked green bean segments, living nymphs 3 days after application; format: in vivo
Experimental: where X=No. of live nymphs on solvent check leaf discs and Y=No. of live nymphs on treated leaf discs. In Table B3 the “Expected % Control” was calculated using the method described in Colby S. R., Weeds, 1967, 15, 20-22. Bioassay 4: Western Tarnished Plant Bug (Lygus hesperus, LYGUHE) (“WTPB”).
Stock solutions were prepared with Formula One as well as for each of the active ingredients individually. Test solutions were prepared from the stock solutions. Test solutions were prepared containing Formula One, the individual active ingredients, and mixtures of Formula One with each of the active ingredients. The test solution for Formula One was prepared by adding 500 μL of the stock solution to a 25 mL glass vial, then adding 500 μL of acetone, followed by the addition of 9 mL water with 0.025% Tween®) 20 to create a 0.04% (w/v) solution. The test solutions of the individual active ingredients were prepared by adding 500 μL of stock solution to a 25 mL glass vial, then adding 500 μL of acetone, followed by the addition of 9 mL water with 0.025% Tween®) 20 to create a 0.005% (w/v) solution. The test solutions containing mixtures of Formula One and the individual active ingredients were prepared by adding 500 μL of the active ingredient stock solution to a 25 mL glass vial, followed by 500 μL of the Formula One stock solution, then by the addition of 9 mL water with 0.025% Tween®) 20 to create a test solution containing 0.04% (w/v) Formula One and 0.005% (w/v) of the active ingredient. Each test solution was serially diluted to create desired doses of test solutions (0.005% (w/v), 0.00125% (w/v), 0.0003125% (w/v), 0.000078% (w/v), and 0.0000195% (w/v)). In test solutions containing mixtures of Formula One and the active ingredients, the active ingredients were diluted as described above, but the Concentration of Formula One was held constant (0.04% (w/v)).
The test solutions were tested against WTPB using the following procedure: Fresh green beans were cut into segments approximately 1.5 inches long. Four bean segments were added to each 25 mL vial containing the test solutions and soaked for approximately 15 minutes. After soaking, a single bean fragment was removed and placed into a single well of a 32-well rearing tray (Frontier Agricultural Sciences™), on top of a round filter paper disc. A reference treatment (solvent check) was treated with the diluent only. Each treatment was replicated four times and the test treatments were held at approximately 26° C. and ambient relative humidity (RH) prior to grading. Bean segments were allowed to air dry for ˜30 minutes. Three WTPB nymphs were added to and contained in each well with a clear perforated adhesive lid. The total number of living WTPB nymphs was recorded 3 days after application. Scoring was based off the total number of living nymphs out of all four replicates. Percent control was measured using Abbott's correction formula (W. S. Abbott, J. Econ. Entomol. 18 (1925), pp. 265-267) as follows:
X=No. of live nymphs on solvent check and Y=No. of live nymphs on treated bean segments. In Table B4 the “Expected % Control” was calculated using the method described in Colby S. R., Weeds, 1967, 15, 20-22. Bioassay 5: Neotropical Brown Stink Bug (Euschistus heros, EUSCHE) (“BSB”).

Molecule: Cc1c(COC(=O)[C@@H]2[C@H](/C=C(\Cl)C(F)(F)F)C2(C)C)cccc1-c1ccccc1 (racemic) [Bifenthrin]
- Average % Control AI ([1]; AI alone 0.78 (10^-5) % w/v): 52%
- Average % Control AI ([2]; AI alone 0.00125 % w/v): 17%

Molecule: CC1(C)[C@H](C(=O)O[C@H](C#N)c2cccc(Oc3ccccc3)c2)[C@@H]1/C=C(\Cl)C(F)(F)F (racemic) [Lambda Cyhalothrin]
- Average % Control AI ([1]; AI alone 0.78 (10^-5) % w/v): 40%
- Average % Control AI ([2]; AI alone 0.000078 % w/v): 0%

Molecule: COP(=O)(NC(C)=O)SC (stereo not drawn) [Acephate]
- Average % Control AI ([2]; AI alone 0.005 % w/v): 0%

Molecule: C/C(=N\C#N)N(C)Cc1ccc(Cl)nc1 [Acetamiprid]
- Average % Control AI ([1]; AI alone 0.78 (10^-5) % w/v): 24%
- Average % Control AI ([2]; AI alone 0.00125 % w/v): 0%

Molecule: CC[S+]([O-])c1c(C#N)nn(-c2c(Cl)cc(C(F)(F)F)cc2Cl)c1N (stereo not drawn) [Ethiprole]
- Average % Control AI ([1]; AI alone 3.125 (10^-5) % w/v): 0%

Molecule: CON=CNC(=O)c1ccc(C2=NOC(c3cc(Cl)cc(Cl)c3)(C(F)(F)F)C2)cc1C (stereo not drawn) [Fluxametamide]
- Average % Control AI ([1]; AI alone 12.5 (10^-5) % w/v): 0%

Molecule: CCN(C(=O)CCS(C)(=O)=O)c1sc(-c2cccnc2)nc1Cl [Formula F1, N-(4-chloro-2-(pyridin-3-yl)thiazol-5-yl)-N-ethyl-3-(methylsulfonyl)propanamide]
- Average % Control F1 ([1]; F1 alone 0.05 (10^-5) % w/v): 29%
- Average % Control F1 ([1]; F1 alone 0.195 (10^-5) % w/v): 13%
- Average % Control F1 ([1]; F1 alone 0.78 (10^-5) % w/v): 28%
- Average % Control F1 ([1]; F1 alone 3.125 (10^-5) % w/v): 30% and 35%
- Average % Control F1 ([1]; F1 alone 12.5 (10^-5) % w/v): 39%

Molecule: O=[N+]([O-])NC1=NCCN1Cc1ccc(Cl)nc1 [Imidacloprid]
- Average % Control AI ([2]; AI alone 0.00125 % w/v): 13%

Molecule: CN1COCN(Cc2cnc(Cl)s2)/C1=N\[N+](=O)[O-] [Thiamethoxam]
- Average % Control AI ([2]; AI alone 0.0003125 % w/v): 65%

Molecule: Abamectin
- Average % Control AI ([2]; AI alone 0.00125 % w/v): 0%

Molecule: Emamectin Benzoate
- Average % Control AI ([1]; AI alone 3.125 (10^-5) % w/v): 21%
